Key:
[1] = tested on: intestinal flora; test: oral d9-(trimethyl)-PC challenge in subjects, time course of plasma d9-TMA by LC/MS/MS; type: in vivo, humans; settings: human subjects, 250 mg oral
Description: TMA is detected in plasma. While TMA is a gas at room and body temperature, if one acidifies the plasma, and the sample flash frozen and analyzed immediately upon thaw, one can measure the TMA cation by mass spectrometry.
Subjects were given 250 mg of d9-(trimethyl)-PC, and then time course of d9-TMA in plasma quantified. […] Plasma TMA was quantified by LC/MS/MS of samples immediately after blood draw, acidification of the plasma with 10 mM HCl to lower TMA vapor pressure, and snap freezing in liquid nitrogen and storage at −80 C until time of analysis.

[2] = tested on: intestinal microflora; test: D3-carnitine gavage in mice, plasma D3-TMA and D3-TMANO by stable isotope dilution LC/MS/MS; type: in vivo; settings: gavage at t=0, plasma
Excerpt: In additional work, mice were gavaged with D3-carnitine and the time dependent appearance of D3-TMA and TMANO were quantified in plasma. Where indicated in FIG. 8, mice were pretreated for 3 weeks with a broad spectrum antibiotic cocktail to suppress intestinal microflora. […] Plasma levels of the deuterium (D3) labeled metabolites of D3-carnitine, D3-TMA and D3-TMANO, were quantified in plasma by stable isotope dilution LC/MS/MS analysis. D3-Carnitine was given by gavage feeding to mice at t=0. Results are shown in FIG. 8, with TMA production shown in FIG. 8B and TMANO production in FIG. 8C.

[3] = tested on: intestinal microflora; test: D3-carnitine gavage in mice, plasma D3-crotonobetaine and D3-gamma-butyrobetaine by LC/MS/MS; type: in vivo
Excerpt: In further work, mice were gavaged with D3-carnitine and the time dependent appearance of D3-crotonobetaine and gamma butyrobetaine were quantified in plasma. Where indicated in FIG. 9, mice were pretreated for 3 weeks with a broad spectrum antibiotic cocktail to suppress intestinal microflora. […] D3-crotonobetaine and D3-gamma-butyrobetaine were quantified in plasma by LC/MS/MS analysis isolated at the indicated times following D3-carnitine gavage feeding. Results are shown in FIG. 9, with crotonbetaine production shown in FIG. 9A, and gamma-butyrobetain production shown in FIG. 9B.

| Compound | time at which plasma d9-TMA levels increased after the PC challenge [1] [h] | metabolites of D3-carnitine appearing in plasma (D3-TMA, D3-TMANO) [2] | metabolites of D3-carnitine appearing in plasma (D3-crotonobetaine, D3-gamma-butyrobetaine) [3] |
| --- | --- | --- | --- |
| d9-(trimethyl)-PC | 4 to 8 |  |  |
| [2H]C([2H])([2H])[N+](C)(C)CC(O)CC(=O)[O-] (stereo not drawn) [D3-carnitine] |  | both TMA and TMANO are generated as a metabolite of carnitine ingestion | both compounds are generated as a metabolite of carnitine ingestion |
